Reference: paper PMC6234229, “The role of loops B and C in determining the potentiation of GABAA receptors by midazolam” (Pharmacology Research & Perspectives, 2018)

Assays:
Test in all cases: Midazolam potentiation of EC10 GABA currents, whole-cell patch clamp, HEK293T
Assay type in all cases: cell-based
α1β2γ2 GABAA receptor = biological target: T1, α1β2γ2 GABAA receptor (Homo sapiens, UniProt P14867+P18507+P47870)
T1 construct: expressed in transfected cells; host or cells: HEK293T
Description: (§1) Human (Homo sapiens) GABAA subunits (α1‐6, β2, γ2s) were subcloned into pcDNA3.1+ vectors with a cytomegalovirus (CMV) promoter. The hβ2 and hα3 sequences were humanized rat (Rattus norvegicus) cDNA with amino acid substitutions made to match the human protein sequence. The α1‐3, α5, β2, and γ2s subunits were a generous gift from Neil L. Harrison (Columbia University Medical Center, NY). The α4 subunit was obtained from GenScript (Piscataway, NJ), and the α6 subunit was a generous gift from Robert L. McDonald (Vanderbilt University, TN). All point mutations (listed in Figure 1C) were introduced using the QuikChange Lightening site‐directed mutagenesis kit (Agilent Technologies, Santa Clara, CA) according to the manufacturer's instructions and were confirmed by sequencing (Eurofins MWG Operon, Louisville, KY).
(§2) Human embryonic kidney cells containing the SV40 T‐antigen (HEK293T) were acquired from American Type Culture Collection (ATCC®, Manassas, VA), catalogue number, CRL3216. HEK293T cells were maintained at 37°C and 5% CO2 in Eagle Minimum Essential Medium (MEM) supplemented with 5% fetal bovine serum (Atlanta Biologicals Inc., Flowery Branch, GA), 40 μM L‐glutamine, 100 U/mL penicillin and 0.1 mM streptomycin. Cells were passaged regularly when they reached 70% confluency using trypsin. Cells were not passaged more than 22 times. New cells were revived from frozen stocks at passage 2‐4. Cells used for in vitro electrophysiology experiments were grown on poly‐D‐lysine‐coated glass coverslips (No.2, VWR, Radnor, PA) and transfected with X‐tremeGENE (Roche Diagnostics, Indianapolis, IN) with the desired receptor subunit cDNAs at a 1:1:1 ratio to express αxβ2γ2s receptors (2 μg total cDNA) and with 0.5 μg green fluorescent protein (GFP) as an expression marker. The γ2s incorporation into receptors was tested with zinc inhibition assays regularly.24 Patch clamp experiments were performed on cells at 24‐72 hours post‐transfection. All experiments were performed at 22°C. Experiments consisted of at least five cells recorded per day from at least two transfections across 3‐4 days to control for cell health and transfection efficiency. At least three cells expressing wild‐type receptors were recorded on days that mutant receptors were tested to provide a time‐matched expression control. All reagents were purchased from Sigma‐Aldrich (St. Louis, MO) unless otherwise stated.
(§3) Extracellular solution contained 161 mM NaCl, 3 mM KCl, 1 mM MgCl2, 1.5 mM CaCl2, 10 mM HEPES, and 6 mM D‐glucose, adjusted to pH 7.4 with NaOH (320‐330 mOsm). […] The perfusion system was controlled by protocols written in pClamp 9 (Molecular Devices, LLC., Sunnyvale, CA). Whole‐cell currents were recorded at ‐60 mV, filtered at 100 Hz and sampled at 200 Hz with a MultiClamp 700B amplifier (Molecular Devices, LLC) and DigiData 1322A (Molecular Devices, LLC) digitizer. […] Cells were recorded with the midazolam protocol no more than two times to avoid desensitization and incomplete washout or irreversible modulation.
(§4) Recordings were analyzed using MATLAB (Math Works, Inc., Natick, MA). […] The maximum peak current, EC50 and Hill coefficient were estimated for assays from each cell. When Hill parameters are estimated from whole‐cell recordings, the changes in the parameters across receptor conditions can be ascribed to the following changes in receptor physiology. Changes in maximum current can be due to changes in the single‐channel conductance or the rate of desensitization. Changes in cell surface receptor expression can cause minor changes in maximum current, but are unlikely to occur in the time course of our experimental protocol. […] More often minor changes in the Hill coefficient are attributed to the altered homogeneity in the receptor population expressed by the HEK293T cell. For example, a shallower Hill coefficient could be caused by a shift in the population of receptors from mostly αβγ receptors to a combination of both αβ and αβγ receptors.

[1] = biological target: T2, α2(S205I)β2γ2 GABAA receptor (Homo sapiens, UniProt P18507+P47869+P47870, S233I)
T2 construct: expressed in transfected cells; host or cells: HEK293T
Description: as §1, §2, §3, §4

[2] = biological target: T3, α3(T187P)β2γ2 GABAA receptor (Homo sapiens, UniProt P18507+P34903+P47870, T215P)
T3 construct: expressed in transfected cells; host or cells: HEK293T
T3 sequence (P34903 29-492 T215P): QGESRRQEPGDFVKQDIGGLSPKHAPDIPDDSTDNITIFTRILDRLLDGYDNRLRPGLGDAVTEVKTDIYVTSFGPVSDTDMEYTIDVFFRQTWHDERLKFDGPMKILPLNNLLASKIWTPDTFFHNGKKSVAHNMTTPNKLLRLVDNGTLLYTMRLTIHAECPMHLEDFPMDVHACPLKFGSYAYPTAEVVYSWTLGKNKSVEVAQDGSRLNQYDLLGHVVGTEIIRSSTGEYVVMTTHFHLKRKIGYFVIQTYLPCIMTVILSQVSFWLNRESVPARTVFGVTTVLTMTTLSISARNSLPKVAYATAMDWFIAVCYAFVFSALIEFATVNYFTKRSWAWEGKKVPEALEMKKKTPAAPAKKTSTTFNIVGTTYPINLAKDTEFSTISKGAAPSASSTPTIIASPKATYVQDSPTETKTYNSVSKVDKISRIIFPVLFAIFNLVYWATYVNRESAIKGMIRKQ
T3 sequence (P47870 25-512 limits assumed): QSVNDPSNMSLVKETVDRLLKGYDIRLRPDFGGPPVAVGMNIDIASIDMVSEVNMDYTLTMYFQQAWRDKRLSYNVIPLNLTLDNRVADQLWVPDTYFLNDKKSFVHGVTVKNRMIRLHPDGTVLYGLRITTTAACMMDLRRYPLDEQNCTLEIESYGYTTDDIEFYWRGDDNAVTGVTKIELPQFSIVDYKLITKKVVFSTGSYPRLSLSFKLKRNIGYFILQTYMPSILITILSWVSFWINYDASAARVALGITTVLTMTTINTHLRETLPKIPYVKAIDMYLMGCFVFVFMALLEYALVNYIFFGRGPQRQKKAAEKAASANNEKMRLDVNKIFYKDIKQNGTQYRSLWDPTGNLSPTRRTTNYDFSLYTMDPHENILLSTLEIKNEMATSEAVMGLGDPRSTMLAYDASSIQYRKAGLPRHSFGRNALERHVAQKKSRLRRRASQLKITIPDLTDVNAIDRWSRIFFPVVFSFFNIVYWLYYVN
T3 sequence (P18507 40-467 isoform P18507-1 limits assumed, stated change not applied): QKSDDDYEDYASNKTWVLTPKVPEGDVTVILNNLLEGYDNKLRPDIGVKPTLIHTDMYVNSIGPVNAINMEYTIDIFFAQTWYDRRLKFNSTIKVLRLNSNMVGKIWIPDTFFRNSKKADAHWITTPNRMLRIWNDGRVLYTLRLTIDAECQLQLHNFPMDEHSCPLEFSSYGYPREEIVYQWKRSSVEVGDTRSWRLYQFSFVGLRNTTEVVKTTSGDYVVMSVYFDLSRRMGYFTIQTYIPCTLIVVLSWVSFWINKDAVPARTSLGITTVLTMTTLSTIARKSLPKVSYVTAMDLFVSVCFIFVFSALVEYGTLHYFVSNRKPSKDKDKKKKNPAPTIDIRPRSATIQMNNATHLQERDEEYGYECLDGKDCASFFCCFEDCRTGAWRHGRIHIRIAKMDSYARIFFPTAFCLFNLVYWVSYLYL
Description: as §1, §2, §3, §4

[3] = biological target: T4, α4(P161T)β2γ2 GABAA receptor (Homo sapiens, UniProt P18507+P47870+P48169, P196T); details: for Midazolam potentiation (%): α4(P161T)
T4 construct: expressed in transfected cells; host or cells: HEK293T
T4 sequence (P48169 36-554 P196T): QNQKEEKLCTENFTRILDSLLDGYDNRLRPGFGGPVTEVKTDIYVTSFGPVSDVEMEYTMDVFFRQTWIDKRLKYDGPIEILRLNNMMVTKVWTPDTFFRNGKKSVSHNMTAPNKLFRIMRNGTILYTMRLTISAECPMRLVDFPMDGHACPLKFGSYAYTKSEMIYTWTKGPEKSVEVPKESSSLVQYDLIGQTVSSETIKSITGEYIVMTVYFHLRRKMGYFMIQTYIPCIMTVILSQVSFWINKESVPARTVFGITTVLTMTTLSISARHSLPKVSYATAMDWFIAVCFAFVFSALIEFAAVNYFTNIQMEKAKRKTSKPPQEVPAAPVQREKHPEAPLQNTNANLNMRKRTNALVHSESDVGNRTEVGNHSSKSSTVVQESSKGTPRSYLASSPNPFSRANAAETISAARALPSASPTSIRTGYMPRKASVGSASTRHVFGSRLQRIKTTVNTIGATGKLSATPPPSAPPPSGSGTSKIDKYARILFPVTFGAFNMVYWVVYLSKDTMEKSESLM
T4 sequence (P47870 26-474 isoform P47870-1 limits assumed, stated change not applied): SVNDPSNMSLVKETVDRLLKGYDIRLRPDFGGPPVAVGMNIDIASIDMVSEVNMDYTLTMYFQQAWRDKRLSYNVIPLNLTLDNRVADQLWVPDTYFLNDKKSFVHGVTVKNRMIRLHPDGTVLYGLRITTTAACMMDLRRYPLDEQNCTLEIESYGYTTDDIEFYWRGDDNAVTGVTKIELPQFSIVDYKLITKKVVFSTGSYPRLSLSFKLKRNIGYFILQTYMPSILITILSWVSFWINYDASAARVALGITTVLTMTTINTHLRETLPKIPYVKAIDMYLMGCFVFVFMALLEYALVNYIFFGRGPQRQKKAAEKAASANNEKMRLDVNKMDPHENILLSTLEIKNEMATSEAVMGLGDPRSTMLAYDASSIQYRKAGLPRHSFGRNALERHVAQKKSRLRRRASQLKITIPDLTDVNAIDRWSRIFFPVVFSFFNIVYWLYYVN
T4 sequence (P18507 40-467 isoform P18507-1 limits assumed, stated change not applied): as the sequence (P18507 40-467 isoform P18507-1 limits assumed, stated change not applied) above
Description: as §1, §2, §3, §4

α4β2γ2 GABAA receptor = biological target: T5, α4β2γ2 GABAA receptor (Homo sapiens, UniProt P18507+P47870+P48169); details: for Midazolam potentiation (%): α4β2γ2
T5 construct: expressed in transfected cells; host or cells: HEK293T
Description: as §1, §2, §3, §4

α5β2γ2 GABAA receptor = biological target: T6, α5β2γ2 GABAA receptor (Homo sapiens, UniProt P18507+P31644+P47870)
T6 construct: expressed in transfected cells; host or cells: HEK293T
T6 sequence (P31644 32-462): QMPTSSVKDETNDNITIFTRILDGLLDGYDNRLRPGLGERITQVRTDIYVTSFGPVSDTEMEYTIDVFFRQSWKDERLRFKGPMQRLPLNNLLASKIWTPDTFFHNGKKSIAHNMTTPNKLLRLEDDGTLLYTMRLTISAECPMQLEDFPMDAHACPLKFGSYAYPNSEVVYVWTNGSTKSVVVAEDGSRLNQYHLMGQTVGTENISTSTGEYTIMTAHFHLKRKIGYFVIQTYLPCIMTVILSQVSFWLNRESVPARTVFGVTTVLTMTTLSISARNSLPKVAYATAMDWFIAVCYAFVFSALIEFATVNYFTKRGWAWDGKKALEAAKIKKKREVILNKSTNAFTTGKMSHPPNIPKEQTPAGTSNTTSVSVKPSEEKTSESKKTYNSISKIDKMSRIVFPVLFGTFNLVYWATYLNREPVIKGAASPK
T6 sequence (P47870 26-474 isoform P47870-1 limits assumed): as the sequence (P47870 26-474 isoform P47870-1 limits assumed, stated change not applied) above
T6 sequence (P18507 40-467 isoform P18507-1 limits assumed): as the sequence (P18507 40-467 isoform P18507-1 limits assumed, stated change not applied) above
Description: as §1, §2, §3, §4

[4] = biological target: T7, α6(N204I)β2γ2 GABAA receptor (Homo sapiens, UniProt P18507+P47870+Q16445, N223I)
T7 construct: expressed in transfected cells; host or cells: HEK293T
Description: as §1, §2, §3, §4

Question: Which EC50 (α1β2γ2 GABAA receptor) does the source give for `Cc1ncc2n1-c1ccc(Cl)cc1C(c1ccccc1F)=NC2` [midazolam] here?
Answer: 71.4 ± 5.8 nM

Question: And the “Midazolam potentiation (%)” value (α1β2γ2 GABAA receptor; 10 nM MDZ + EC10 GABA, α1β2γ2)?
Answer: 22.06 ± 3.46%

Question: And the “Midazolam potentiation (%)” value (α1β2γ2 GABAA receptor; 50 nM MDZ + EC10 GABA, α1β2γ2)?
Answer: 71.67 ± 6.40%

Question: What about the “Midazolam potentiation (%)” value (α1β2γ2 GABAA receptor; 100 nM MDZ + EC10 GABA, α1β2γ2) of the same compound?
Answer: 145.94 ± 13.37%

Question: What about the “Midazolam potentiation (%)” value (α1β2γ2 GABAA receptor; 500 nM MDZ + EC10 GABA, α1β2γ2) of the same compound?
Answer: 201.94 ± 16.80%

Question: And the “Midazolam potentiation (%)” value (α1β2γ2 GABAA receptor; 1000 nM MDZ + EC10 GABA, α1β2γ2)?
Answer: 215.35 ± 26.71%

Question: What about the “Max potentiation (%)” value (α1β2γ2 GABAA receptor; α1β2γ2, Hill fit, midazolam 10-1000 nM + EC10 GABA) of the same compound?
Answer: 203.0 ± 17.6%

Question: And the Hill coefficient (α1β2γ2 GABAA receptor; α1β2γ2, midazolam Hill fit)?
Answer: 1.765 ± 0.165

Question: What about the EC50 [1] of the same compound?
Answer: 41.7 ± 4.99 nM

Question: What about the “Midazolam potentiation (%)” value ([1]; 10 nM MDZ + EC10 GABA, α2(S205I)) of the same compound?
Answer: 21.06 ± 6.24%

Question: What about the “Midazolam potentiation (%)” value ([1]; 50 nM MDZ + EC10 GABA, α2(S205I)) of the same compound?
Answer: 54.26 ± 10.25%

Question: What about the “Midazolam potentiation (%)” value ([1]; 100 nM MDZ + EC10 GABA, α2(S205I)) of the same compound?
Answer: 86.20 ± 14.74%

Question: What about the “Midazolam potentiation (%)” value ([1]; 500 nM MDZ + EC10 GABA, α2(S205I)) of the same compound?
Answer: 102.63 ± 19.49%

Question: What about the “Midazolam potentiation (%)” value ([1]; 1000 nM MDZ + EC10 GABA, α2(S205I)) of the same compound?
Answer: 97.62 ± 20.12%

Question: And the “Max potentiation (%)” value ([1]; α2(S205I), Hill fit, midazolam 10-1000 nM + EC10 GABA)?
Answer: 116.4 ± 23.0%

Question: What about the Hill coefficient ([1]; α2(S205I), midazolam Hill fit) of the same compound?
Answer: 1.362 ± 0.140

Question: And the EC50 [2]?
Answer: 55.2 ± 2.91 nM

Question: What about the “Midazolam potentiation (%)” value ([2]; 10 nM MDZ + EC10 GABA, α3(T187P)) of the same compound?
Answer: 23.71 ± 6.37%

Question: And the “Midazolam potentiation (%)” value ([2]; 50 nM MDZ + EC10 GABA, α3(T187P))?
Answer: 92.47 ± 12.51%

Question: And the “Midazolam potentiation (%)” value ([2]; 100 nM MDZ + EC10 GABA, α3(T187P))?
Answer: 168.56 ± 23.08%

Question: What about the “Midazolam potentiation (%)” value ([2]; 500 nM MDZ + EC10 GABA, α3(T187P)) of the same compound?
Answer: 212.97 ± 30.06%

Question: What about the “Midazolam potentiation (%)” value ([2]; 1000 nM MDZ + EC10 GABA, α3(T187P)) of the same compound?
Answer: 213.30 ± 30.99%

Question: What about the “Max potentiation (%)” value ([2]; α3(T187P), Hill fit, midazolam 10-1000 nM + EC10 GABA) of the same compound?
Answer: 219.6 ± 32.3%

Question: What about the Hill coefficient ([2]; α3(T187P), midazolam Hill fit) of the same compound?
Answer: 1.963 ± 0.224

Question: What about the “Midazolam potentiation (%)” value ([3]; 10 nM MDZ + EC10 GABA) of the same compound?
Answer: 13.22 ± 3.76%

Question: What about the “Midazolam potentiation (%)” value ([3]; 50 nM MDZ + EC10 GABA) of the same compound?
Answer: 10.31 ± 5.64%

Question: What about the “Midazolam potentiation (%)” value ([3]; 100 nM MDZ + EC10 GABA) of the same compound?
Answer: 14.28 ± 5.87%

Question: And the “Midazolam potentiation (%)” value ([3]; 500 nM MDZ + EC10 GABA)?
Answer: 21.94 ± 5.61%

Question: And the “Midazolam potentiation (%)” value ([3]; 1000 nM MDZ + EC10 GABA)?
Answer: 26.43 ± 9.72%

Question: And the “responsiveness to midazolam potentiation” value ([3]; α4(P161T)β2γ2)?
Answer: failed to confer midazolam responsiveness

Question: What about the “Midazolam potentiation (%)” value (α4β2γ2 GABAA receptor; 10 nM MDZ + EC10 GABA) of the same compound?
Answer: 10.98 ± 3.61%

Question: What about the “Midazolam potentiation (%)” value (α4β2γ2 GABAA receptor; 50 nM MDZ + EC10 GABA) of the same compound?
Answer: 13.30 ± 4.65%

Question: What about the “Midazolam potentiation (%)” value (α4β2γ2 GABAA receptor; 100 nM MDZ + EC10 GABA) of the same compound?
Answer: 15.15 ± 4.85%

Question: And the “Midazolam potentiation (%)” value (α4β2γ2 GABAA receptor; 500 nM MDZ + EC10 GABA)?
Answer: 15.98 ± 5.42%

Question: What about the “Midazolam potentiation (%)” value (α4β2γ2 GABAA receptor; 1000 nM MDZ + EC10 GABA) of the same compound?
Answer: 17.89 ± 4.82%

Question: What about the “responsiveness to midazolam potentiation” value (α4β2γ2 GABAA receptor; wildtype α4β2γ2) of the same compound?
Answer: no notable midazolam potentiation

Question: And the EC50 (α5β2γ2 GABAA receptor)?
Answer: 52.8 ± 3.48 nM

Question: And the “Midazolam potentiation (%)” value (α5β2γ2 GABAA receptor; 10 nM MDZ + EC10 GABA, α5β2γ2)?
Answer: 20.47 ± 10.62%

Question: What about the “Midazolam potentiation (%)” value (α5β2γ2 GABAA receptor; 50 nM MDZ + EC10 GABA, α5β2γ2) of the same compound?
Answer: 63.82 ± 19.54%

Question: What about the “Midazolam potentiation (%)” value (α5β2γ2 GABAA receptor; 100 nM MDZ + EC10 GABA, α5β2γ2) of the same compound?
Answer: 113.29 ± 28.44%

Question: And the “Midazolam potentiation (%)” value (α5β2γ2 GABAA receptor; 500 nM MDZ + EC10 GABA, α5β2γ2)?
Answer: 130.90 ± 29.52%

Question: And the “Midazolam potentiation (%)” value (α5β2γ2 GABAA receptor; 1000 nM MDZ + EC10 GABA, α5β2γ2)?
Answer: 123.12 ± 26.08%

Question: What about the “Max potentiation (%)” value (α5β2γ2 GABAA receptor; α5β2γ2, Hill fit, midazolam 10-1000 nM + EC10 GABA) of the same compound?
Answer: 107.9 ± 20.3%

Question: And the Hill coefficient (α5β2γ2 GABAA receptor; α5β2γ2, midazolam Hill fit)?
Answer: 2.632 ± 0.329

Question: And the “responsiveness to midazolam potentiation” value [4]?
Answer: failed to convey any notable midazolam potentiation

Question: And the “Midazolam potentiation (%)” value ([4]; 10 nM MDZ + EC10 GABA)?
Answer: 11.98 ± 4.42%

Question: What about the “Midazolam potentiation (%)” value ([4]; 50 nM MDZ + EC10 GABA) of the same compound?
Answer: 19.07 ± 5.84%

Question: And the “Midazolam potentiation (%)” value ([4]; 100 nM MDZ + EC10 GABA)?
Answer: 25.21 ± 7.32%

Question: What about the “Midazolam potentiation (%)” value ([4]; 500 nM MDZ + EC10 GABA) of the same compound?
Answer: 25.85 ± 6.62%

Question: What about the “Midazolam potentiation (%)” value ([4]; 1000 nM MDZ + EC10 GABA) of the same compound?
Answer: 19.31 ± 7.32%
